The results in this text go back to patent publication US11173145B2, “Compounds useful as inhibitors of indoleamine 2,3-dioxygenase and/or tryptophan dioxygenase” (Board of Regents, The University of Texas System, priority 2017, dated 2021).

For orientation: IC50 means the concentration that inhibits the measured activity by half. Higher therefore signals lower potency.

Molecules are shown by their SMILES.

The target of the assay is T1, IDO1 (Homo sapiens, UniProt P14902).
T1 construct: endogenous in cells; host or cells: HeLa cells (ATCC), IFNgamma-induced
T1 sequence (P14902 whole entry): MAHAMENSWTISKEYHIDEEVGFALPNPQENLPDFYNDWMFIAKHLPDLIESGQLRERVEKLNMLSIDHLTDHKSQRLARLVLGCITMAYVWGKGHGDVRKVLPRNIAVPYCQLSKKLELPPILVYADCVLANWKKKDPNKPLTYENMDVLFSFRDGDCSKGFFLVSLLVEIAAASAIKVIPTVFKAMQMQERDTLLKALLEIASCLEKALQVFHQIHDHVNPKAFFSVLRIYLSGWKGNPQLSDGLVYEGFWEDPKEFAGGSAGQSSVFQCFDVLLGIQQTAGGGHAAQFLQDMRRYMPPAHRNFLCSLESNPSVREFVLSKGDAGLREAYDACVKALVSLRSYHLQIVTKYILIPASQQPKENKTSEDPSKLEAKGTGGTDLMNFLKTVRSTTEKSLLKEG
Kind of assay: IDO1 cell-based assay (HeLa cells, IFNgamma-induced, N-formylkynurenine/L-tryptophan by RFMS). Conditions: 10 ng/mL IFNgamma, 24 hours. As for the experimental part: HeLa cells were obtained from the American Type Culture Collection (ATCC) and maintained in DMEM media containing 10% FBS. Cells (7,000/well) were seeded onto a 384 well plate in 50 μL of media and incubated at 37° C., 5% CO2 overnight. Cell media was aspirated, fresh media containing 10 ng/mL IFNgamma was added, and cells were incubated in absence or presence of various concentrations of test compound (final 0.5% DMSO) for 24 hours. Aliquots of the cell conditioned media were removed from the cell plate, and mixed with an equal volume of 200 mM ZnSO4 to precipitate media containing proteins. Two volumes of acetonitrile were added, mixed, and samples were then centrifuged at 2250G for 20 minutes at 4° C. Aliquots of the supernatant were diluted 1:10 in 0.1% formic acid containing 3 μM of deuterated Tryptophan as an internal standard.
Samples were analyzed via RFMS to quantify N-Formyl Kynurenine (AUC) and L-tryptophan (AUC). A C18 cartridge was used with mobile phases of 0.1% Formic Acid and 80% ACN/0.1% Formic Acid under isocratic conditions. Dose-response curves were analyzed using IC50 regression curve fitting (GeneData Screener). […] Cell viability was also assessed using the Cell Titer Glo Kit (Promega) following manufacturer recommendation.
For `CCC(NC(=O)c1ccc(Cl)cc1)[C@H]1[C@@H]2C[C@@H](n3cc(C(=O)N4CCCC4)nn3)C[C@@H]21` (stereo partly drawn) [Compound 98, 4-chloro-N-(1-((1R,3s,5S,6r)-3-(4-(pyrrolidine-1-carbonyl)-1H-1,2,3-triazol-1-yl)bicyclo[3.1.0]hexan-6-yl)propyl)benzamide], the IC50 is < 200 nM.
Under `CC[C@@H](NC(=O)c1ccc(C)nc1)[C@H]1[C@@H]2C[C@@H](n3cnc4cc(F)c(F)cc43)C[C@@H]21` [Compound 311, N-((R)-1-((1R,3S,5S,6r)-3-(5,6-difluoro-1H-benzo[d]imidazol-1-yl)bicyclo[3.1.0]hexan-6-yl)propyl)-6-methylnicotinamide] stands < 200 nM; under `COc1ccc(C(=O)NC(C)[C@H]2[C@@H]3C[C@@H](Oc4ncnc5cc(F)ccc45)C[C@@H]32)cn1` (stereo partly drawn) [Compound 124, N-(1-((1R,3s,5S,6r)-3-((7-fluoroquinazolin-4-yl)oxy)bicyclo[3.1.0]hexan-6-yl)ethyl)-6-methoxynicotinamide], < 200 nM.
Regarding `O=C(NC[C@@H]1[C@H]2C[C@H](n3cnc4cc(F)c(F)cc43)C[C@@H]12)c1ccc(Cl)c(F)c1` [Compound 315, 4-chloro-N-(((1R,3s,5S,6r)-3-(5,6-difluoro-1H-benzo[d]imidazol-1-yl)bicyclo[3.1.0]hexan-6-yl)methyl)-3-fluorobenzamide], the half-inhibitory concentration (IC50) is < 200 nM.
Under `CCC(NC(=O)c1ccc(Cl)cc1)[C@H]1[C@@H]2C[C@@H](NC(=O)N3CCNCC3)C[C@@H]21` (stereo partly drawn) [Compound 156, N-((1R,3s,5S,6r)-6-(1-(4-chlorobenzamido)propyl)bicyclo[3.1.0]hexan-3-yl)piperazine-1-carboxamide] stands > 5000 nM; under `CCC(NC(=O)c1ccc(Cl)cc1)[C@H]1[C@@H]2C[C@@H](Oc3ncnc4cc(Cl)ccc34)C[C@@H]21` (stereo partly drawn) [Compound 21, 4-chloro-N-(1-((1R,3s,5S,6r)-3-((7-chloroquinazolin-4-yl)oxy)bicyclo[3.1.0]hexan-6-yl)propyl)benzamide], < 200 nM; under `CC(C(=O)Nc1ccc(Cl)cc1)[C@H]1[C@@H]2C[C@@H](Oc3ncnc4ccc(F)cc34)C[C@@H]21` (stereo partly drawn) [Compound 339, N-(4-chlorophenyl)-2-((1R,3s,5S,6r)-3-((6-fluoroquinazolin-4-yl)oxy)bicyclo[3.1.0]hexan-6-yl)propanamide], < 200 nM.
The result for `O=C(NC1C2CN(c3ccnc4ccc(F)cc34)CC21)C(CO)c1ccccc1` (stereo not drawn) [Compound 110, N-(3-(6-fluoroquinolin-4-yl)-3-azabicyclo[3.1.0]hexan-6-yl)-3-hydroxy-2-phenylpropanamide] reads > 5000 nM; that for `CC(C(=O)Nc1ccc(Cl)c(F)c1)[C@H]1[C@@H]2C[C@@H](n3cnc4cc(F)c(F)cc43)C[C@@H]21` (stereo partly drawn) [Compound 345, N-(4-chloro-3-fluorophenyl)-2-((1R,3s,5S,6r)-3-(5,6-difluoro-1H-benzo[d]imidazol-1-yl)bicyclo[3.1.0]hexan-6-yl)propanamide], < 200 nM; that for `C[C@@H](NC(=O)c1ccc(Cl)cc1)[C@H]1[C@@H]2C[C@@H](Oc3cc(Cl)ccc3C(=O)O)C[C@@H]21` [Compound 341, 4-chloro-2-(((1R,3S,5S,6r)-6-((R)-1-(4-chlorobenzamido)ethyl)bicyclo[3.1.0]hexan-3-yl)oxy)benzoic acid], 2000 to 5000 nM.
As to `CC[C@@H](NC(=O)c1ccc(C#N)cc1)[C@H]1[C@@H]2CC(N=[N+]=[N-])C[C@@H]21` (stereo partly drawn) [Compound 283, N-((1R)-1-((1R,5S,6r)-3-azidobicyclo[3.1.0]hexan-6-yl)propyl)-4-cyanobenzamide], the concentration for half-maximal inhibition (IC50) was < 200 nM.
Under `O=C(NCc1ccc(Cl)cc1)C1[C@H]2CC(Oc3cc(C(F)(F)F)nc4ccc(F)cc34)C[C@@H]12` (stereo partly drawn) [Compound 17, (1R,5S)-N-(4-chlorobenzyl)-3-((6-fluoro-2-(trifluoromethyl)quinolin-4-yl)oxy)bicyclo[3.1.0]hexane-6-carboxamide] stands > 5000 nM.
